Assay results from patent US20250241882A1, “COMPOSITION FOR TREATMENT OF THE SKIN” (DR. KURT WOLFF GMBH & CO. KG, priority 2022, published 2025).
“Also recorded” adds a separate entry of the source.

Assays:
Assay type in all cases: cell-based, human
VEGF = VEGF gene expression by qRT-PCR in HaCaT cells; details: after 24 h of cultivation, standardized to GAPDH, versus control
Protocol: VEGF (vascular endothelial growth factor) promotes the growth and formation of new blood and lymph vessels. Gene expression was measured using a standard method of quantitative real-time PCR (qRT-PCR).
Human epidermal keratinocyte cells (HaCaT) were seeded in a 6-well plate at a cell density of 140,000 cells/well and cultured in medium (DMEM with 10% FBS, 1% penicillin-streptomycin, 0.5% Fungizone) at 37° C. and 5 vol. % CO2. The next day, the cell culture medium was changed without (control) and with the active ingredient concentrations already contained and the cells were harvested after 24 h. Gene expression was measured using qRT-PCR based on previously published studies in B. V. Diaz, M.-C. Lenoir, A. Ladoux, C. Frelin, M. Demarchez, S. Michel, Journal of Biological Chemistry 2000, 275, 642-650.
Shown is the relative gene expression of VEGF determined by qRT-PCR (triple determination, standardized to the corresponding gene expression of a constitutively expressed gene; GAPDH-glyceraldehyde-3-phosphate dehydrogenase). The mean value with standard deviation is given.

HaCaT cells [1] = assay: MTT assay, cell viability; details: after 48 h and 72 h of cultivation, versus control without DMG
Protocol: (§1) 1. As part of an in-vitro study, the effect of Na-dimethylglycinate was investigated in a cell culture model with human horn-forming keratinocyte cells. For this purpose, HaCaT cells were cultured for 1, 3, 5, and 7 days in DMEM medium (including fetal calf serum and an antibiotic-antimycotic mix) and, among other things, the viability, proliferation and migration of the cells were determined using suitable measuring methods, as well as the expression of the growth factors relevant for cell growth.
For this measurement, a so-called MTT assay was used to determine cellular metabolic activity as an indicator of cell viability and cytotoxicity. This colorimetric assay is based on the reduction of a yellow tetrazolium salt (3-(4,5-dimethylthiazol-2-yl)-2,5-diphenyltetrazolium bromide or MTT) to violet formazan crystals by metabolically active cells.
Human epidermal keratinocyte cells (HaCaT) were seeded in a 96-well plate at a cell density of 5,000 cells/well and cultured in medium (DMEM with 10% FBS, 1% penicillin-streptomycin, 0.5% Fungizone). […]
Cell viability was determined using MTT assay. The absorbance was measured using quadruple determination and standardized to the control at 24 h. […]

HaCaT cells [2] = assay: wound healing assay, cell migration; details: different DMG concentrations, 16 h, 20 h, 24 h, compared to the control without DMG
Protocol: as §1
To measure migration, a so-called wound healing assay was performed, based on previously published studies in T. Kawabata, T. Otsuka, K. Fujita, G. Sakai, R. Matsushima-Nishiwaki, O. Kozawa, H. Tokuda, International journal of molecular medicine 2018, 42, 3,149-3,156. The principle is based on measuring the migration of cells over time on a cultivation surface yet to be colonized. […]
At time 0 h, the wound was created and images were taken after 16 h, 20 h, and 24 h of cultivation. Based on the images, the cultivation surface, which had not yet been populated by cells, was determined using the ImageJ software. The measured values are standardized to the time point 0 h (maximum size of the wound) and given in %.

HaCaT cells [3] = assay: CyQUANT assay, cell proliferation; details: after 48 h and 72 h of cultivation, versus control without DMG
Protocol: as §1
To measure proliferation, a so-called CyQUANT assay was performed. In this fluorescence-based assay, the fluorescent dye used binds to DNA (deoxyribonucleic acid), whereby the content of cellular DNA is a direct measure of the number of cells within a sample. Human epidermal keratinocyte cells (HaCaT) were seeded in a 96-well plate at a cell density of 5,000 cells/well and cultured in medium (DMEM with 10% FBS, 1% penicillin-streptomycin, 0.5% Fungizone). The next day and after a further 24 h, 48 h and 72 h of cultivation at 37° C. and 5 vol. % CO2, the cell culture medium was changed without (control) or with the active ingredient concentrations already contained. […]
Cell proliferation was determined using the CyQUANT assay. Fluorescence was measured using triple determination each time and standardized to the control at 24 h. […]

CN(C)CC(=O)[O-].[Na+] [DMG, sodium dimethylglycinate]
relative gene expression of VEGF (VEGF): significant increase; also recorded: significantly increased
cell viability (MTT assay) (HaCaT cells [1]): significant increase
migration and wound closure (HaCaT cells [2]): significantly faster
cell proliferation (CyQUANT assay) (HaCaT cells [3]): significant increase
